This note sets out measurements from ChEMBL document CHEMBL1201862, “PubChem BioAssay data set” (2004).

What all share (assay): NCI-60 cell line screen, 48 h
The subject of experiment [1] is 786-0.
The subject of experiment [2] is A498.
For experiment [3], the system named is ACHN.
Experiment [4] concerns DU-145.
The subject of experiment [5] is EKVX.
Experiment [6] deals with HCT-116.
In experiment [7] the test system is Hs-578T.
Experiment [8] concerns MOLT-4.
The test system of experiment [9] is NCI-H226.
The test system of experiment [10] is NCI-H23.
The subject of experiment [11] is NCI-H460.
Experiment [12] deals with NCI-H522.
Experiment [13] has as its system NCI/ADR-RES.
The subject of experiment [14] is OVCAR-4.
The subject of experiment [15] is OVCAR-8.
In experiment [16] the test system is SF-539.
In experiment [17] the test system is SW-620.
The subject of experiment [18] is U-251.
The subject of experiment [19] is UACC-257.
Experiment [20] deals with UO-31.

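Following 48 hours of exposure in 96-well plates, responses at five concentrations were used to interpolate endpoints linearly. GI50 is the concentration that inhibits growth by half.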 The source made the active and inactive calls. No stated cut-off is given here; in the data, active = GI50 up to about 1.1 µM and inactive = higher.

Take `O=C(Nc1sccc1S(=O)(=O)c1ccc(Cl)cc1)C(F)(F)F`: the GI50 is 17 µM (inactive) in [1]; 33.9 µM (inactive) in [2]; 43 µM (inactive) in [3]; 31.6 µM (inactive) in [4]; 40.7 µM (inactive) in experiment [5]; 14.1 µM (inactive) in [6]. In addition, the GI50 in experiment [7] was 18.7 µM (inactive); in [8], 15 µM (inactive); in [9], 29.6 µM (inactive); in experiment [10], 24.1 µM (inactive); in experiment [11], 27.4 µM (inactive); in [12], 8.63 µM (inactive). For the same compound, the GI50 was 18.4 µM (inactive) in [13]; 33.7 µM (inactive) in experiment [14]; 24.6 µM (inactive) in experiment [15]; 26.1 µM (inactive) in experiment [16]; 53.2 µM (inactive) in [17]; 34.6 µM (inactive) in experiment [18]. In addition, the GI50 in experiment [19] was 32.7 µM (inactive); in [20], 25.1 µM (inactive).
As for `O/N=C(\CC(O)(C(F)(F)F)C(F)(F)F)c1cccs1`, the GI50 in experiment [1], in experiment [2], in experiment [3], in [4], in [5] and in experiment [6] was > 10 µM (inactive) each time. Also, the GI50 in [7], in [8], in experiment [9], in experiment [10], in experiment [11] and in [12] was > 10 µM (inactive) throughout. The GI50 in experiment [13], in experiment [14], in experiment [15], in experiment [16], in [17] and in experiment [18] was > 10 µM (inactive) throughout. Moreover, the GI50 in [19] and in experiment [20] was > 10 µM (inactive) in each case.
In the case of `COC(=O)c1cc2c(n1S(=O)(=O)c1ccc(C)cc1)C(=O)C(=O)c1[nH]cc(C(=O)OCc3ccccc3)c1-2`, the GI50 is 0.23 µM (active) in [1]; 1.65 µM (inactive) in experiment [2]; 0.233 µM (active) in experiment [3]; 0.138 µM (active) in [4]; 0.279 µM (active) in experiment [5]; 0.0718 µM (active) in experiment [6]. The GI50 in experiment [7] was 0.43 µM (active); in experiment [8], 0.0647 µM (active); in experiment [9] it was 0.199 µM (active); in [10] it was 0.0649 µM (active); in [11], 1.37 µM (inactive); in experiment [12] it was 0.094 µM (active). Also, the GI50 in experiment [13] was 0.583 µM (active); in experiment [14], 0.209 µM (active); in [15] it was 0.0989 µM (active); in [16], 0.136 µM (active); in experiment [17], 0.0514 µM (active); in experiment [18], 0.172 µM (active). For the same compound, the GI50 in experiment [19] was 0.0322 µM (active); in experiment [20] it was 0.211 µM (active).
On to `Cn1c(-c2cccs2)cc(-c2ccccc2)c1-c1cccs1`, for which the GI50 was 35.4 µM (inactive) in [1]; > 100 µM (inactive) in [2]; 39.9 µM (inactive) in [3]; > 100 µM (inactive) in experiment [4]; 22.7 µM (inactive) in experiment [5]; 31.2 µM (inactive) in [6]. In addition, the GI50 in [7] is > 100 µM (inactive); in [8] it was 66.2 µM (inactive); in experiment [9], 45.4 µM (inactive); in experiment [10] it was 4.75 µM (inactive); in experiment [11], > 100 µM (inactive); in experiment [12] it was 50.8 µM (inactive). For the same compound, the GI50 in experiment [13] was > 100 µM (inactive); in experiment [14], 74.3 µM (inactive); in experiment [15], 65.2 µM (inactive); in experiment [16] it was 43.8 µM (inactive); in experiment [17], > 100 µM (inactive); in experiment [18] it was 47.8 µM (inactive). In addition, the GI50 was 48.2 µM (inactive) in experiment [19] and > 100 µM (inactive) in experiment [20].
In the case of `CC(=O)/C(=C/NC(=S)Nc1ccccc1)C(=O)Nc1ccccc1C`, the GI50 in experiment [1], in [2], in [3], in experiment [4], in experiment [5] and in experiment [6] was > 100 µM (inactive) in each case. Further, the GI50 in [7], in experiment [8], in experiment [9], in [10], in experiment [11] and in experiment [12] was > 100 µM (inactive) each time. Moreover, the GI50 in [13], in [14], in experiment [15], in [16], in [17] and in experiment [18] was > 100 µM (inactive) in each case. The results for the GI50 in experiment [19] and in [20] were > 100 µM (inactive) and 41.8 µM (inactive), respectively.
Turning to `CN(C)c1ccc2cc3ccc(N(C)C)cc3nc2c1` [ACRIDINE ORANGE], the GI50 in experiment [1] is 0.638 µM (active); in experiment [2] it was 4.08 µM (inactive); in [3], 0.611 µM (active); in experiment [4], 1.32 µM (inactive); in experiment [5] it was 1.87 µM (inactive); in [6], 0.316 µM (active). Also, the GI50 is 2.5 µM (inactive) in experiment [7]; 0.134 µM (active) in experiment [8]; 5.09 µM (inactive) in [9]; 1.51 µM (inactive) in [10]; 0.393 µM (active) in experiment [11]; 1.58 µM (inactive) in experiment [12]. In addition, the GI50 in experiment [13] was 1.43 µM (inactive); in experiment [14] it was 0.853 µM (active); in experiment [15] it was 1.56 µM (inactive); in experiment [16], 1.88 µM (inactive); in experiment [17], 0.49 µM (active); in [18], 1.24 µM (inactive). Also, the GI50 in experiment [19] is 3.98 µM (inactive); in [20] it was 0.871 µM (active).
Consider `COc1ccc2nc3ccc(OC)cc3c([S+]([O-])Cc3ccc([N+](=O)[O-])cc3)c2c1` (stereo not given), for which the GI50 in experiment [1] was 2.1 µM (inactive); in experiment [2], 17.3 µM (inactive); in experiment [3] it was 5.52 µM (inactive); in experiment [4], 2.58 µM (inactive); in experiment [5] it was 16.6 µM (inactive); in [6] it was 1.69 µM (inactive). Further, the GI50 in experiment [7] is 8.87 µM (inactive); in experiment [8], 1.83 µM (inactive); in experiment [9], 22.9 µM (inactive); in [10], 6.7 µM (inactive); in experiment [11], 23.3 µM (inactive); in experiment [12] it was 1.73 µM (inactive). In addition, the GI50 in [13] was 21.2 µM (inactive); in [14], 9.51 µM (inactive); in experiment [15], 3.39 µM (inactive); in experiment [16] it was 2.81 µM (inactive); in experiment [17], 2.18 µM (inactive); in experiment [18], 10.9 µM (inactive). For the same compound, the GI50 in experiment [19] is 3.9 µM (inactive); in [20], 6.44 µM (inactive).
For the compound `O=[N+]([O-])c1ccc2c(/N=N/c3ccc4ccccc4c3O)c(O)cc(S(=O)(=O)O)c2c1`, the GI50 in [1] was 18.7 µM (inactive); in experiment [2], 35.3 µM (inactive); in [3], 7.13 µM (inactive); in experiment [4], 18.7 µM (inactive); in experiment [5] it was 14.7 µM (inactive); in experiment [6], 19.5 µM (inactive). Also, the GI50 in experiment [7] is 41 µM (inactive); in [8], 3.98 µM (inactive); in experiment [9], 4.66 µM (inactive); in experiment [10] it was 31.3 µM (inactive); in experiment [11], 38.5 µM (inactive); in experiment [12], 7.71 µM (inactive). In addition, the GI50 in experiment [13] was 11.1 µM (inactive); in [14], 9.64 µM (inactive); in [15], 7.41 µM (inactive); in experiment [16], 11.4 µM (inactive); in [17] it was 18.7 µM (inactive); in experiment [18], 7.41 µM (inactive). Also, the GI50 in [19] was 31.3 µM (inactive); in [20], 5.78 µM (inactive).
With `Cc1ccccc1C(=O)N1CCc2c([nH]c3ccccc23)C1`, the GI50 is 22.9 µM (inactive) in experiment [1]; 21.5 µM (inactive) in experiment [2]; 34.9 µM (inactive) in experiment [3]; 25.6 µM (inactive) in experiment [4]; 24.9 µM (inactive) in experiment [5]; 17.7 µM (inactive) in experiment [6]. Besides, the GI50 in experiment [7] is 29 µM (inactive); in experiment [8], 27.4 µM (inactive); in experiment [9] it was 21.8 µM (inactive); in experiment [10] it was 21.4 µM (inactive); in [11] it was 21.7 µM (inactive); in [12], 19.1 µM (inactive). Besides, the GI50 in experiment [13] is 22.6 µM (inactive); in [14] it was 22.6 µM (inactive); in [15], 27 µM (inactive); in [16], 21.5 µM (inactive); in experiment [17] it was 27.6 µM (inactive); in experiment [18] it was 18 µM (inactive). For the same compound, the figures for the GI50 in experiment [19] and in experiment [20] were 23.9 µM (inactive) and 31.2 µM (inactive), respectively.
Take `O=c1oc2ccccc2cc1-c1nnc(-c2ccccc2)s1`: the GI50 in experiment [1] is 17.3 µM (inactive); in experiment [2] it was 15.1 µM (inactive); in experiment [3], 32 µM (inactive); in [4], > 100 µM (inactive); in [5] it was > 58.9 µM (inactive); in [6], 20.3 µM (inactive). The GI50 in [7] was > 64.4 µM (inactive); in experiment [8], 19.1 µM (inactive); in [9] it was > 56 µM (inactive); in [10], > 51.2 µM (inactive); in experiment [11], 28.1 µM (inactive); in experiment [12], 13.7 µM (inactive). Further, the GI50 is 12.1 µM (inactive) in experiment [13]; > 68.2 µM (inactive) in experiment [14]; 22.1 µM (inactive) in [15]; 14.5 µM (inactive) in experiment [16]; 12.1 µM (inactive) in experiment [17]; 12.6 µM (inactive) in [18]. Besides, the GI50 in experiment [19] was > 100 µM (inactive); in experiment [20], 55.6 µM (inactive).
